≈ marks a conversion by molar mass, not a printed value. Read-outs that look alike come from different tables or passages of the source.
Tests used:
Assay in all cases: MIC determination
Type in all cases: cell-based
S. pneumoniae ATCC 49619 = details: Streptococcus pneumoniae, ATCC49619; S. pneumoniae ATCC 49619; read-out: MIC
[1] = system: E. coli MP-74 LptD mutant; details: Escherichia coli
H. influenzae ATCC 49247 = details: Haemophilus influenzae, ATCC49247
E. coli MP-9 ΔTolC = details: Escherichia coli
[2] = system: S. pneumoniae MMX 3028 cErmB; details: Streptococcus pneumoniae, MMX3028CERMB
[3] = system: S. aureus MP-549 msr(a) USA 300; details: Staphylococcus aureus, USA300, S. aureus MP-549 msr(a) USA 300
E. coli ATCC 25922 = details: Escherichia coli
E. faecalis ATCC 29212 = details: Enterococcus faecalis
K. pneumoniae ATCC 10031 = details: Klebsiella pneumoniae, ATCC10031
S. aureus ATCC 29213 = details: Staphylococcus aureus
[4] = system: S. aureus MP-513 clinical cErm; details: Staphylococcus aureus
S. aureus BAA 977 iErmA = details: Staphylococcus aureus, BAA977
[5] = system: S. pneumoniae UNT-039, MP-627, TP1517 (mefA); details: Streptococcus pneumoniae
[6] = system: S. pyogenes MMX 946 Macrolide-Resistant; details: Streptococcus pyogenes, read-out: MIC
S. pyogenes ATCC 19615 = details: Streptococcus pyogenes, ATCC19615
[7] = system: S. aureus UNT-120, MP-619, NRS22 (USA 600, GISA); details: Staphylococcus aureus
[8] = system: S. aureus UNT96, NRS710, MP-618 (USA 100, Erythro >8); details: Staphylococcus aureus
[9] = system: S. pyogenes UNT-014, MP-625 MacRes; details: Streptococcus pyogenes
E. faecalis UNT-047 VRE = details: Enterococcus faecalis, VRE
[10] = system: S. aureus UNT-146, MP-620, TP 506 (ermA); details: Staphylococcus aureus
P. aeruginosa ATCC 27853 = details: Pseudomonas aeruginosa, ATCC27853
[11] = system: S. pneumoniae UNT-038, MP-626, TP 160 (mefA); details: Streptococcus pneumoniae
[12] = system: S. aureus Micromyx USA 300; details: Staphylococcus aureus, USA300; S. aureus Micromyx USA 300; read-out: MIC
C. difficile BAA 1805 = details: Clostridioides difficile, BAA1805; C. difficile BAA 1805; read-out: MIC
[13] = system: E. coli MMX TolC parent strain; details: Escherichia coli
E. coli MMX 0121 ΔTolC = details: Escherichia coli
B. fragilis ATCC 25285 = details: Bacteroides fragilis, ATCC25285
[14] = system: E. faecalis MMX 847 Macrolide-Resistant; details: Enterococcus faecalis
[15] = system: P. aeruginosa MMX Mex parent strain; details: Pseudomonas aeruginosa
[16] = system: P. aeruginosa MMX 3476 Δmex; details: Pseudomonas aeruginosa
[17] = system: S. pneumoniae MMX 3031 cMefA; details: Streptococcus pneumoniae, MMX3031CMEFA
S. aureus MMX 3035 cErmA = details: Staphylococcus aureus, MMX3035CERMA
[18] = system: S. pneumoniae TP 1579 (ermB + tet(M, O)); details: Streptococcus pneumoniae
E. coli GUEST131 (NDM-1) = details: Escherichia coli
[19] = K. pneumoniae ATCC 10031, read-out: MIC
[20] = ATCC29213, S. aureus ATCC 29213, read-out: MIC
[21] = S. pyogenes ATCC 19615, read-out: MIC
[22] = S. pyogenes UNT-014, MP-625 MacRes, read-out: MIC

Row | SMILES | MIC (S. pneumoniae ATCC 49619) | MIC (E. coli MP-9 ΔTolC) | MIC [3] | MIC (S. aureus ATCC 29213; [20]) | MIC (S. aureus BAA 977 iErmA) | MIC [5] | MIC (S. pyogenes ATCC 19615; [21]) | MIC (E. coli ATCC 25922; ATCC25922) | MIC [4] | MIC (P. aeruginosa ATCC 27853) | MIC [11] | MIC (K. pneumoniae ATCC 10031) | other results
1 | CSC1O[C@H]([C@H](NC(=O)[C@H]2NC[C@@H]3C[C@@H](c4ccccc4F)CCO[C@H]32)[C@H](C)Cl)C(O)[C@@H](O)[C@H]1O (some centres unmarked) [FSA-511100] | 0.125 µg/mL (≈ 0.234 µM) | 32 µg/mL (≈ 60 µM) | 0.25 µg/mL (≈ 0.469 µM) | 0.25 µg/mL (≈ 0.469 µM) | 4 µg/mL (≈ 7.5 µM) | 1 µg/mL (≈ 1.88 µM) | 0.25 µg/mL (≈ 0.469 µM) |  |  |  |  |  | MIC [1]: 16 µg/mL (≈ 30 µM); MIC (H. influenzae ATCC 49247; H. influenzae ATCC 49247, read-out: MIC): 64 µg/mL (≈ 120 µM); MIC ([2]; S. pneumoniae MMX 3028 cErmB, read-out: MIC): > 256 µg/mL; MIC (E. coli ATCC 25922; ATCC25922, E. coli ATCC 25922, read-out: MIC): > 64 µg/mL; MIC (E. faecalis ATCC 29212; ATCC29212, read-out: MIC): > 256 µg/mL; MIC (K. pneumoniae ATCC 10031; [19]): > 64 µg/mL; MIC ([4]; S. aureus MP-513 clinical cErm, read-out: MIC): > 256 µg/mL; MIC ([6]; S. pyogenes MMX 946 MacRes): > 256 µg/mL
2 | CSC1O[C@H]([C@H](NC(=O)[C@H]2NC[C@@H]3CN(Cc4ccccc4)CCO[C@H]32)[C@H](C)Cl)C(O)[C@@H](O)[C@H]1O (some centres unmarked) [FSA-502002] | 0.25 µg/mL (≈ 0.472 µM) | > 64 µg/mL | 2 µg/mL (≈ 3.77 µM) | 2 µg/mL (≈ 3.77 µM) | 2 µg/mL (≈ 3.77 µM) | 0.125 µg/mL (≈ 0.236 µM) | 0.125 µg/mL (≈ 0.236 µM) | > 64 µg/mL | > 64 µg/mL | > 64 µg/mL | 0.25 µg/mL (≈ 0.472 µM) |  | MIC [7]: > 64 µg/mL; MIC [8]: > 64 µg/mL; MIC [9, 22]: 0.125 µg/mL (≈ 0.236 µM); MIC (E. faecalis UNT-047 VRE): > 64 µg/mL; MIC [10]: > 64 µg/mL; MIC (E. faecalis ATCC 29212; ATCC29212, read-out: MIC): 8 µg/mL (≈ 15.1 µM); MIC (K. pneumoniae ATCC 10031; [19]): 64 µg/mL (≈ 121 µM)
3 | CSC1O[C@H]([C@H](NC(=O)[C@H]2NC[C@@H]3CC=CCO[C@H]32)[C@H](C)Sc2ccc(-c3cncnc3)cc2)C(O)[C@@H](O)[C@H]1O (some centres unmarked) [FSA-27049] | ≤ 0.06 µg/mL | 64 µg/mL (≈ 109 µM) | 0.25 µg/mL (≈ 0.425 µM) | 1 µg/mL (≈ 1.7 µM) | 2 µg/mL (≈ 3.4 µM) |  | ≤ 0.06 µg/mL | > 64 µg/mL | > 64 µg/mL | > 64 µg/mL |  |  | MIC [12]: 1 µg/mL (≈ 1.7 µM); MIC (C. difficile BAA 1805): 1 µg/mL (≈ 1.7 µM); MIC [1]: 32 µg/mL (≈ 54.4 µM); MIC (H. influenzae ATCC 49247): 32 µg/mL (≈ 54.4 µM); MIC [13]: > 64 µg/mL; MIC [2]: 32 µg/mL (≈ 54.4 µM); MIC (E. coli MMX 0121 ΔTolC): 8 µg/mL (≈ 13.6 µM); MIC (B. fragilis ATCC 25285): > 64 µg/mL; MIC (E. faecalis ATCC 29212; ATCC29212): 64 µg/mL (≈ 109 µM); MIC [14]: > 64 µg/mL; MIC [15]: > 64 µg/mL; MIC [16]: > 64 µg/mL; MIC [17]: ≤ 0.06 µg/mL; MIC (S. aureus MMX 3035 cErmA): > 64 µg/mL; MIC ([6]; S. pyogenes MMX 946 Macrolide-Resistant (MacRes)): 2 µg/mL (≈ 3.4 µM)
4 | CSC1O[C@H]([C@H](NC(=O)[C@H]2NC[C@@H]3C[C@@H](O)[C@@H](O)CO[C@H]32)[C@H](C)Cl)C(O)[C@@H](O)[C@H]1O (some centres unmarked) [FSA-501076] | 64 µg/mL (≈ 136 µM) | > 64 µg/mL | > 64 µg/mL |  | > 64 µg/mL | 32 µg/mL (≈ 67.9 µM) |  | > 64 µg/mL | > 64 µg/mL | > 64 µg/mL | 64 µg/mL (≈ 136 µM) | > 64 µg/mL | MIC [7]: > 64 µg/mL; MIC [8]: > 64 µg/mL; MIC [9]: > 64 µg/mL; MIC (E. faecalis UNT-047 VRE): > 64 µg/mL; MIC [10]: > 64 µg/mL; MIC (E. faecalis ATCC 29212; ATCC29212): > 64 µg/mL; MIC (S. aureus ATCC 29213; ATCC29213): > 64 µg/mL; MIC (S. pyogenes ATCC 19615): > 64 µg/mL
5 | CCC[C@@H]1C[C@@H](C(=O)N[C@@H]([C@H]2O[C@H](SC)[C@H](O)[C@@H](O)[C@H]2O)[C@H](C)Cl)N(C)C1 [Clindamycin, clindamycin, reference compound] |  |  |  |  |  | ≤ 0.0313 µg/mL |  |  | > 64 µg/mL | > 64 µg/mL | ≤ 0.0313 µg/mL |  | MIC [18]: ≤ 0.0313 µg/mL; MIC [12]: 0.25 µg/mL (≈ 0.588 µM); MIC [9, 22]: ≤ 0.0313 µg/mL; MIC [13]: > 64 µg/mL; MIC (E. coli MMX 0121 ΔTolC): 4 µg/mL (≈ 9.41 µM); MIC [14]: > 64 µg/mL; MIC [15]: > 64 µg/mL; MIC [16]: > 64 µg/mL; MIC (E. coli GUEST131 (NDM-1)): > 3 µg/mL
6 | CSC1O[C@H]([C@H](NC(=O)[C@H]2NC[C@@H]3C[C@H]4OC(C)(C)O[C@H]4CO[C@H]32)[C@H](C)Cl)C(O)[C@@H](O)[C@H]1O (some centres unmarked) [FSA-501099] | 8 µg/mL (≈ 15.7 µM) | > 64 µg/mL | > 64 µg/mL |  | > 64 µg/mL | 2 µg/mL (≈ 3.91 µM) | 16 µg/mL (≈ 31.3 µM) | > 64 µg/mL | > 64 µg/mL | > 64 µg/mL | 16 µg/mL (≈ 31.3 µM) | > 64 µg/mL | MIC [7]: > 64 µg/mL; MIC [8]: > 64 µg/mL; MIC [9, 22]: 29 µg/mL (≈ 56.7 µM); MIC (E. faecalis UNT-047 VRE): > 64 µg/mL; MIC [10]: > 64 µg/mL; MIC (E. faecalis ATCC 29212; ATCC29212): > 64 µg/mL; MIC (S. aureus ATCC 29213; ATCC29213): > 64 µg/mL
7 | C=CCOC(=O)N1CCO[C@@H]2[C@H](CN[C@@H]2C(=O)N[C@H]([C@H](C)Cl)[C@H]2OC(SC)[C@H](O)[C@H](O)C2O)C1 (some centres unmarked) [FSA-503073] |  | > 64 µg/mL | 32 µg/mL (≈ 61.1 µM) | 64 µg/mL (≈ 122 µM) | 64 µg/mL (≈ 122 µM) |  |  | > 64 µg/mL | > 64 µg/mL | > 64 µg/mL |  | > 64 µg/mL | 
8 | CCCN1CCO[C@@H]2[C@H](CN[C@@H]2C(=O)N[C@H]([C@H](C)Cl)[C@H]2OC(SC)[C@H](O)C(O)C2O)C1 (some centres unmarked) [FSA-503003] |  | > 64 µg/mL | 2 µg/mL (≈ 4.15 µM) | 4 µg/mL (≈ 8.3 µM) | 4 µg/mL (≈ 8.3 µM) |  |  | > 64 µg/mL | > 64 µg/mL | > 64 µg/mL |  | > 64 µg/mL | 
9 | CCNC(=O)N1CCO[C@@H]2[C@H](CN[C@@H]2C(=O)N[C@H]([C@H](C)Cl)[C@H]2OC(SC)[C@H](O)C(O)C2O)C1 (some centres unmarked) [FSA-503004] |  | > 64 µg/mL | > 64 µg/mL |  | > 64 µg/mL |  |  | > 64 µg/mL | > 64 µg/mL | > 64 µg/mL |  | > 64 µg/mL | MIC (S. aureus ATCC 29213; ATCC29213): > 64 µg/mL
10 | CSC1O[C@H]([C@H](NC(=O)[C@H]2NC[C@@H]3CN(C)CCO[C@H]32)[C@H](C)Cl)C(O)C(O)[C@H]1O (some centres unmarked) [FSA-503002] |  | > 64 µg/mL | > 64 µg/mL | 64 µg/mL (≈ 141 µM) | > 64 µg/mL |  |  | > 64 µg/mL | > 64 µg/mL | > 64 µg/mL |  | > 64 µg/mL | 
11 | CSC1O[C@H]([C@H](NC(=O)[C@H]2NC[C@@H]3CN(Cc4ccnc(N)c4)CCO[C@H]32)[C@H](C)Cl)C(O)C(O)[C@H]1O (some centres unmarked) [FSA-504849] |  | > 64 µg/mL | 8 µg/mL (≈ 14.6 µM) | 16 µg/mL (≈ 29.3 µM) | 32 µg/mL (≈ 58.6 µM) |  |  | > 64 µg/mL | > 64 µg/mL | > 64 µg/mL |  | > 64 µg/mL | 

— patent US11767341B2, “Lincosamide antibiotics and uses thereof” (President and Fellows of Harvard College, priority 2017, dated 2023)
